Assay results as given in patent US6737383B1, “Herbicidal oxadiazolidines” (priority 1999, dated 2004).

Columns and labels:
[1] = system: crabgrass; assay: Test B pre/postemergence crabgrass; format: in vivo, Digitaria sanguinalis
Procedure, shortened: (§1)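 Response is a visual 0-to-10 score relative to untreated plants, where 0 means no effect and 10 means complete control, taken twelve to sixteen days after application. Treatments went onto soil at planting and onto foliage of 1- to 4-leaf plants, using a surfactant-containing non-phytotoxic solvent.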

[2] = system: bamyardgrass; assay: Test B flood test barnyardgrass; format: in vivo, Echinochloa crus-galli
Procedure, shortened: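 Read-out is a visual response score from 0 (no effect) to 10 (complete control), assigned by comparison with untreated controls. Treatment was applied at the 2-leaf stage, and plants stayed in the greenhouse for twelve to sixteen days before scoring.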

[3] = system: blackgrass; assay: Test B pre/postemergence blackgrass; format: in vivo, Alopecurus myosuroides
Procedure, shortened: as §1

[4] = system: morningglory; assay: Test B pre/postemergence morningglory; format: in vivo, Ipomoea hederacea
Procedure, shortened: as §1

[5] = Preemergence, Rate 62 g/ha, scale of 0 to 10 where 0 is no effect and 10 is complete control
[6] = Preemergence, Rate 250 g/ha, scale of 0 to 10 where 0 is no effect and 10 is complete control
[7] = Preemergence, Rate 500 g/ha, scale of 0 to 10 where 0 is no effect and 10 is complete control
[8] = Rate 62 g/ha, Postemergence, scale 0 to 10 (0 no effect, 10 complete control)
[9] = Rate 125 g/ha, Postemergence, scale of 0 to 10 where 0 is no effect and 10 is complete control
[10] = Rate 250 g/ha, Postemergence, scale of 0 to 10 where 0 is no effect and 10 is complete control
[11] = Rate 500 g/ha, Postemergence, scale 0 to 10, 0 no effect, 10 complete control
[12] = Rate 62 g/ha, headed Pre-emergence (flood test species), scale 0 to 10 (0 no effect, 10 complete control)
[13] = Rate 125 g/ha, Pre-emergence, flood test species, scale 0 to 10 where 0 is no effect and 10 is complete control
[14] = Rate 250 g/ha, Pre-emergence, flood-test species, scale 0 to 10, 0 is no effect, 10 is complete control
[15] = Rate 500 g/ha, Pre-emergence, flood test species, scale 0 to 10 (0 no effect, 10 complete control)
[16] = Postemergence, Rate 125 g/ha, scale 0 to 10, 0 is no effect, 10 is complete control

Compound	Crabgrass plant response rating [1, 5]	Crabgrass plant response rating (0 to 10 scale) ([1]; Preemergence, Rate 125 g/ha)	Crabgrass plant response rating [1, 6]	Crabgrass plant response rating [1, 7]	Crabgrass plant response rating [1, 8]	Plant response rating, Crabgrass [1, 11]	Barnyardgrass plant response rating [2, 12]	Barnyardgrass plant response rating [2, 13]	Barnyardgrass plant response rating [2, 14]	Barnyardgrass plant response rating [2, 15]	Blackgrass plant response rating [3, 5]	Blackgrass plant response rating (0 to 10 scale) ([3]; Preemergence, Rate 125 g/ha)	Blackgrass plant response rating [3, 6]	Blackgrass plant response rating [3, 7]	Blackgrass plant response rating [3, 8]	Plant response rating, Blackgrass [3, 10]	Plant response rating, Blackgrass [3, 11]	Morningglory plant response rating [4, 5]	Morningglory plant response rating (0 to 10 scale) ([4]; Preemergence, Rate 125 g/ha)	Morningglory plant response rating [4, 6]	also measured
CC(C)N(C(=O)n1oc(=O)n(CCCN(C)C)c1=O)c1ccc(F)cc1 [Compound 323]	0	0	0	2	0	0	0	0	0	0	0	0	0	0	0	0	0	0	0	0	Crabgrass plant response rating [1, 9]: 0; Plant response rating, Crabgrass [1, 10]: 0; Blackgrass plant response rating [3, 9]: 0; Morningglory plant response rating [4, 7]: 0; Morningglory plant response rating [4, 8]: 0; Morningglory plant response rating [4, 9]: 0; Plant response rating, Morningglory [4, 10]: 2; Plant response rating, Morningglory [4, 11]: 3
CC(C)N(C(=O)n1oc(=O)n(C2CC3CCC2C3)c1=O)c1ccc(F)cc1F (stereo not drawn) [Compound 326]	0	0	3	5	0	3	0	0	8	9	0	5	7	8	0	0	1	0	0	0	Plant response rating, Crabgrass [1, 16]: 0; Plant response rating, Crabgrass [1, 10]: 1; Plant response rating, Blackgrass [3, 16]: 0; Plant response rating, Morningglory [4, 16]: 7; Morningglory plant response rating [4, 7]: 0; Morningglory plant response rating [4, 8]: 5; Plant response rating, Morningglory [4, 11]: 10
CC(C)N(C(=O)n1oc(=O)n(-c2ccc3ccccc3c2)c1=O)c1ccc(F)cc1F [Compound 335]	0	0	2	2	0	0	0	0	0	4	0	0	0	0	0	0	0	0	0	0	Plant response rating, Crabgrass [1, 16]: 0; Plant response rating, Blackgrass [3, 16]: 0; Plant response rating, Morningglory [4, 16]: 0; Morningglory plant response rating [4, 7]: 0; Morningglory plant response rating [4, 8]: 0; Plant response rating, Morningglory [4, 11]: 0
